This is an account of results in patent US12648574B2 (priority 2019, dated 2026).

Each structure is given as a SMILES string. Where two headings read alike, the source gives them in different places.

Test [1] concerns Xylella fastidiosa subsp. fastidiosa IVIA 5387.2. Format: cell-based. As to conditions: for mean survival: streptomycin 100 mg/L.
In test [2] the test system is Xylella fastidiosa subsp. fastidiosa strain 5387.2 in almond plants of the Avijor variety. Format: in vivo. Particulars: ampicillin 100 mg/L.
Test [3] relates to X. fastidiosa subsp. fastidiosa (IVIA strain 5387.2). Format: cell-based, Xylella fastidiosa subsp. fastidiosa. Particulars: ampicillin 100 mg/l.
The subject of test [4] is Xylella fastidiosa subsp. multiplex IVIA 5901.2. Format: cell-based. Particulars: for mean survival: ampicillin 100 mg/L.
Test [5] has as its system X. fastidiosa subsp. pauca strain CoDiRO (DD1). Format: cell-based, Xylella fastidiosa subsp. pauca. As to conditions: streptomycin 100 mg/L.
The subject of test [6] is Xanthomonas axonopodis pv. vesicatoria IVIA 2133.2. Format: cell-based.
The subject of test [7] is Xanthomonas arboricola pv. pruni CFBP 5563. Format: cell-based.
Test [8] concerns Ralstonia solanacearum CECT 125. Format: cell-based. As to conditions: streptomycin 100 mg/L.
Test [9] concerns Erwinia amylovora EPS 101. Format: cell-based.
Test [10] has as its system Xanthomonas fragariae 349-9^a. Format: cell-based.
Test [11] concerns Xanthomonas arboricola pv. pruni CFBP 5563. Format: cell-based. This is another data set of the same source.
In test [12] the test system is 11 phytopathogenic strains. Format: cell-based.
The test system of test [13] is Xanthomonas axonopodis pv. vesicatoria IVIA 2133.2. Format: cell-based. As to conditions: 2 h.
Test [14] relates to Xylella fastidiosa subsp. multiplex IVIA 5901.2. Format: cell-based. Particulars: streptomycin 100 mg/L.
The test system of test [15] is EPS101 strain of E. amylovora in pear plants of the Conference variety. Further details: species or system Erwinia amylovora. Particulars: in vivo.
Test [16] relates to Xylella fastidiosa subsp. fastidiosa IVIA 5387.2. Format: cell-based. As to conditions: streptomycin 100 mg/L.
The subject of test [17] is Erwinia amylovora EPS 101. Format: cell-based. This is another data set of the same source.
Test [18] has as its system Pseudomonas syringae pv. syringae EPS 94. Format: cell-based.
In test [19] the test system is Xylella fastidiosa subsp. pauca DD1 CODiRo. Format: cell-based. As to conditions: streptomycin 100 mg/L.
Setting [20] is: 31 days after application, qPCR of sap.

Regarding `CC1(C)S[C@@H]2[C@H](NC(=O)[C@H](N)c3ccccc3)C(=O)N2[C@H]1C(=O)O` [ampicillin], in test [1] (ampicillin 100 mg/L), the type of effect entry was “bacteriostatic effect”. For the same compound, the survival result is “no survival” in test [1] (ampicillin 100 mg/L, 30 and 120 minutes, direct suspension or dilution −1); 20.6% in [3] (2 hours). Also, the “plants with decrease of viable bacteria at the inoculation point” value in [2] (18 h after application, 4 plants) is reported as 25 % of the plants. For the same compound, the “plants with upward and downward movement of Xylella fastidiosa” value in [2] (31 days after application) is on record as 75 % of the plants. The “plants with Xylella fastidiosa not detected in A1” value in test [2] (setting [20]) was 25 % of plants. Further, the “plants with Xylella fastidiosa not detected in A2” value in test [2] (setting [20]) is 25 % of plants. Besides, the “plants with Xylella fastidiosa not detected in B” value in test [2] (setting [20]) is reported as 25 % of plants. Besides, the “severity of infections with respect to untreated control” value in [2] (curative trunk microinjection, product 20 and 40 μl/ml, 31 days after application) was “significantly reduced”. Moreover, in [2] (product 20 μl/ml, 14 days after application), the “lower progression of Xylella fastidiosa by the vascular system (qPCR)” value was “not observed”. This compound displayed a median survival in test [3] (30 minutes) of 100%. Moreover, the mean survival is 2% in test [4] (30 minutes) and 4.4% in test [4] (120 minutes).
In the case of `[H]/N=C(/N)N[C@H]1[C@H](O)[C@@H](O)[C@H](O[C@@H]2O[C@@H](C)[C@](O)(C=O)[C@H]2O[C@@H]2O[C@@H](CO)[C@H](O)[C@@H](O)[C@@H]2NC)[C@@H](N/C(N)=N\[H])[C@@H]1O` [streptomycin], the survival in test [5] (30 minutes) is 89.8%; in [5] (120 minutes), 61.7%; in [7] (2 hours) it was “no survival”; in test [13], 3.06; in test [17], “significant reduction”. Also, the mean survival was determined as 4.4% in test [1] (30 minutes), 20% in test [1] (120 minutes) and 0.01% in test [7]. Also, the bacterial growth result in test [6], in [8], in [9], in test [10], in [11] and in [14] was “−” each time. In addition, the bacterial growth entry in [16], in test [18] and in test [19] was “−” throughout. For the same compound, the “growth of all pathogens tested” value in test [12] was “inhibited the growth”. In test [4] (streptomycin 100 mg/L), the “survival compared to the untreated control” value was “no significant differences”. Also, the “severity of infections with respect to untreated control” value in test [15] is listed as “significantly reduced”.
